pIC50: −log10 of the molar value.
Legend:
[1] = tested on: susceptible fungal strains; assay: Antifungal MIC95 comparison on susceptible fungal strains; assay type: cell-based; conditions: MIC95, Table 3 fungal strains
Procedure: Evaluation of antimicrobial activity in vitro. Compounds were tested against the following panel of bacteria and fungi purchased from the American Type Culture Collection (ATCC). Briefly, bacteria were grown to mid-log phase, diluted with fresh medium to an optical density at 600 nm (OD600) of 0.030-0.060 and then diluted again 1:10. This suspension (195 μL) was added to wells in a 96 well microtiter plate (Sarstedt) and 5 μL of compound dissolved in DMSO was added to give a final concentration of 100-0.1 μM at 2.5% DMSO by volume. A DMSO negative control and standard antibiotic positive controls were included in each plate. All compounds were tested in triplicate for each concentration. Plates were sealed with parafilm, placed in a Ziploc bag to prevent evaporation, and incubated at 30° C. (fungi) or 37° C. (bacteria) for 16-20 hours (48 hours for C. neoformans). The OD600 values for each well were determined with a plate reader (Biotek, EL800) and the data were standardized to the DMSO control wells after subtracting the background from blank medium. Initial single concentrations were tested at 100 μM and active compounds were further tested with at least nine concentrations for a full dose response. Dose response curves were generated using GraphPad Prism 5 software and used to determine the MIC95 concentrations (minimal concentration that inhibits 95% of growth). […]

[2] = tested on: human cervix carcinoma HeLa cells; assay: Cell proliferation assay, HeLa; assay type: cell-based; conditions: 72 h proliferation, Coulter counter
Procedure: Cell proliferation assays for several of the compounds were performed on L1210, a mouse lymphocytic leukemia cell line; CCRF-CEM [39] an acute lymphoblastic leukemia cell line; and HeLa, a human cancer cell line derived from a human cervical adenocarcinoma. Murine Leukemia L1210, human lymphocytic CEM and human cervix carcinoma HeLa cells were obtained from the American Type Culture Collection (ATCC) (Rockville, Md.). All assays were performed in 96-well microtiter plates. To each well were added (5-7.5)×10^4 tumor cells and a given amount of the test compound. The cells were allowed to proliferate for 48 h (murine leukemia L1210 cells) or 72 h (human lymphocytic CEM and human cervix carcinoma HeLa cells) at 37° C. in a humidified CO2-controlled atmosphere. At the end of the incubation period, the cells were counted in a Coulter counter. The IC50 (50% inhibitory concentration) was defined as the concentration of the compound that inhibited cell proliferation by 50%. […] Presence of C7 iodine on the 2,4-dichloro pyrrolo[3,2-d] (compound 20) increases the anticancer activity by a factor of 5 when compared to compound 19. […] This alludes to a) importance of C7-I towards activity against cancer cell lines for the 2,4-O-benzylated analogues (15 and 16).

Row | Compound | times more potent than compound 1 [1] | pIC50 [2]
1 | Clc1nc(Cl)c2scc(Br)c2n1 [Compound 2, 7-Bromo-2,4-dichlorothieno[3,2-d]pyrimidine] | 2-5 | 
2 | Clc1nc(Cl)c2[nH]ccc2n1 [Compound 19, 2,4-Dichloropyrrolo[3,2-d]pyrimidine] |  | 4.72

From patent publication US10561658B2, “Thieno- and pyrrolopyrimidine analogues as anticancer agents and methods of use thereof” (UNIVERSITY OF MARYLAND, BALTIMORE COUNTY, priority 2015, dated 2020)
